# Paper PMC4932538, “Alkanediamide-Linked Bisbenzamidines Are Promising Antiparasitic Agents” (Pharmaceuticals, 2016)
# “Also recorded” adds a separate entry of the source. Read-outs that look alike come from different tables or passages of the source.
# How the values were obtained:
# [1] = system: T. b. brucei Lab 110 EATRO (pentamidine-sensitive); test: In vitro antitrypanosomal activity, T.b. brucei Lab 110 EATRO; type: cell-based, Trypanosoma brucei brucei; details: Table S1, from IC50 of Table 1; for IC50: Trypanosoma brucei, read-out: pIC50 T.b. brucei (converted)
# Method: The in vitro assays with the two isolates of T. brucei were conducted according to previously described procedures [14].
# [2] = system: T. b. rhodesiense KETRi 243 (melarsoprol, pentamidine- and diminazene diaceturate-resistant); test: In vitro antitrypanosomal activity, T.b. rhodesiense KETRI 243; type: cell-based, Trypanosoma brucei rhodesiense; details: Table S1, from IC50 of Table 1; for IC50: Trypanosoma brucei, RHODESIENSE, read-out: pIC50 T.b. rhod (converted)
# Method: (§5) The anti-T. cruzi activity was determined using intracellular amastigote forms of T. cruzi Tulahuen strain C2C4 in rat skeletal myoblasts (L6 cells) as described previously [24]. The anti-L. donovani activity was determined using the amastigotes of L. donovani strain MHOM-ET-67/L82 as described previously [24]. […] The cytotoxicity assays against rat skeletal myoblast L6-cells were performed as described previously [24].
# [3] = system: intracellular amastigote forms of T. cruzi Tulahuen strain C2C4 in rat skeletal myoblasts (L6 cells); test: In vitro anti-T. cruzi activity; type: cell-based, Trypanosoma cruzi; details: for IC50: average of at least two determinations
# Method: as §5
# [4] = system: amastigotes of L. donovani strain MHOM-ET-67/L82; test: In vitro anti-L. donovani activity; type: cell-based, Leishmania donovani; details: for IC50: average of at least two determinations
# Method: as §5
# [5] = system: P. falciparum K1 (chloroquine-resistant); test: In vitro anti-plasmodial activity, K1; type: cell-based, Plasmodium falciparum
# Method: as §5
# [6] = system: rat skeletal myoblast L6-cells; test: Cytotoxicity against L6 cells; type: cell-based
# Method: as §5
# [7] = system: poly(dA-dT); test: DNA thermal melting with poly(dA-dT); type: binding; details: 1:5 compound to DNA base pair ratio; mean of at least two determinations
# Method: (§1) In addition to the determination of the potency of the synthesized compounds against different strains of cell lines (Table 1), thermal melting experiments of these compounds were also conducted with poly(dA-dT) and calf thymus DNA (Table S1, supplementary file). […] The weaker binding to DNA (lower ΔTm values) compared to pentamidine might be attributed to the lower lipophilicity and higher PSA properties of these compounds since they would be expected to bind less favorably in the less polar environment of the minor grove of DNA as was reported for the aza-analogues of furamidine. […] Therefore, ability of these compounds to act at other potential targets cannot be ruled out.
# (§2) The DNA binding affinity of the tested compounds was determined by measuring the change in mid-point of the thermal denaturation curves for a 1:5 compound to DNA base pair ratio as described previously. Each Tm value reported in Table S1 (supplementary file) represents the mean of at least two experimental determinations.
# [8] = system: calf thymus DNA; test: DNA thermal melting with calf thymus DNA; type: binding; details: 1:5 compound to DNA base pair ratio; mean of at least two determinations
# Method: as §1, §2
# [9] = system: T. b. brucei Lab 110 EATRO (pentamidine-sensitive); design: method as in PMID 19736009; details: strain Lab 110; average of at least two determinations; cited from earlier work
# [10] = system: T. b. rhodesiense KETRi 243 (melarsoprol, pentamidine- and diminazene diaceturate-resistant); design: method as in PMID 19736009; details: strain KETRI 243; average of at least two determinations; read-out: IC50 T.b. rhod; cited from earlier work
# [11] = system: P. falciparum NF54 (chloroquine-sensitive); test: In vitro anti-plasmodial activity, NF54; type: cell-based, Plasmodium falciparum
# [12] = system: T.b. brucei Lab 110 EATRO; test: In vivo trypanocidal activity in mice, Lab 110 EATRO; details: for Mean Survival: 1.0, 2.5, 5, 10 mg/kg/day i.p. for 3 days (all doses)
# Method: (§3) The compounds were administered via the intraperitoneal route at doses ranging from 1.0 mg/kg/day to 25.0 mg/kg/day for 3 days unless otherwise noted. Pentamidine was used as the reference compound. All three of the tested compounds were effective in curing mice infected with the Lab 110 EATRO or KETRI 2002 strains at several doses.
# (§4) The in vivo studies were conducted according to the procedures described previously.
# [13] = system: T.b. rhodesiense KETRI 2002; test: In vivo trypanocidal activity in mice, KETRI 2002; details: for Mean Survival: KETRI 2002
# Method: as §3, §4
# [14] = system: T.b. rhodesiense KETRI 2538; test: In vivo trypanocidal activity in mice, KETRI 2538; details: KETRI 2538; 1.0, 5, 10 mg/kg/day i.p. for 3 days (all doses)
# Method: as §3, §4
# [15] = system: T.b. rhodesiense KETRI 1992; test: In vivo trypanocidal activity in mice, KETRI 1992; details: for Mean Survival: KETRI 1992
# [16] = system: both strains of P. falciparum; test: In vitro activity and selectivity, both strains of P. falciparum; type: cell-based, Plasmodium falciparum
# Method: The selectivity index of these compounds for T. brucei (SIT.b) or P. falciparum (SIP.f) are defined as the ratio of the L6 cells IC50 to the T. brucei or P. falciparum IC50 values.
# The in vitro assays with the two isolates of T. brucei were conducted according to previously described procedures [14]. […] The cytotoxicity assays against rat skeletal myoblast L6-cells were performed as described previously [24].
# [17] = Trypanosoma cruzi, TULAHUEN, L6
# [18] = Plasmodium falciparum, K1, Table S1, from IC50 of Table 1, read-out: pIC50 P. falcip K1 (converted)
# [19] = Plasmodium falciparum, K1, chloroquine-resistant strain, read-out: IC50 P. falcip K1
# [20] = Rattus norvegicus, L6, cytotoxicity, read-out: IC50 L6 Cells
# [21] = chloroquine-resistant strain, read-out: IC50 P. falcip K1
# [22] = cytotoxicity, read-out: IC50 L6 Cells
# [23] = chloroquine-sensitive strain, read-out: IC50 P. falcip NF54
Compound,Thermal Melting ΔTm Poly(dA-dT) [7],Thermal Melting ΔTm CT-DNA [8],IC50 [9],IC50 [10],pIC50 T.b. brucei [1],pIC50 T.b. rhod [2],IC50 [3],IC50 [4],"pIC50 P. falcip K1 ([5]; Table S1, from IC50 of Table 1)","IC50 [5, 21]","IC50 [6, 22]","IC50 [11, 23]",further results
N#Cc1ccc(NC(=O)CCCC(=O)Nc2ccc(C#N)cc2)cc1 [Compound 3],0.15 C,−0.2 C,6.5 µM,7.9 µM,–,–,–,–,–,–,–,–,"IC50 [1]: 6.5 µM; IC50 [2]: 7.91 µM; IC50 [3, 17]: > 100 µM; IC50 ([4]; Leishmania donovani): > 100 µM; IC50 [5, 18]: 44.8 µM; IC50 [5, 19]: 44.8 µM; IC50 [6, 20]: > 100 µM"
N=C(N)c1cccc(NC(=O)CCCCC(=O)Nc2cccc(C(=N)N)c2)c1 [Compound 7],13.8 C,–,0.041 µM,0.021 µM,7.387,7.678,> 100 µM,> 100 µM,6.420,0.38 µM,> 100 µM,–,–
NC(=O)c1ccc(NC(=O)CCCCC(=O)Nc2ccc(C(N)=O)cc2)cc1 [Compound 8],0.0 C,–,2.8 µM,1.1 µM,–,–,–,–,–,–,–,–,"IC50 [1]: 2.8 µM; IC50 [2]: 1.1 µM; IC50 [3, 17]: > 100 µM; IC50 ([4]; Leishmania donovani): > 100 µM; IC50 [5, 19]: > 100 µM; IC50 [6, 20]: > 100 µM"
NC(=O)c1cccc(NC(=O)CCCCC(=O)Nc2cccc(C(N)=O)c2)c1 [Compound 9],0.0 C,–,–,1.97 µM,–,–,–,–,–,–,–,–,"IC50 [2]: 1.97 µM; IC50 [3, 17]: > 100 µM; IC50 ([4]; Leishmania donovani): > 100 µM; IC50 [5, 19]: > 100 µM; IC50 [6, 20]: 46.4 µM"
N=C(N)c1ccc(NC(=O)CCCCC(=O)Nc2cccc(C(=N)N)c2)cc1 [Compound 10],–,–,0.012 µM,0.007 µM,7.921,8.155,> 100 µM,> 100 µM,8.398,0.004 µM,> 100 µM,0.015 µM,–
N=C(N)c1ccc(NC(=O)CCCCCCC(=O)Nc2ccc(C(=N)N)cc2)cc1 [Compound 12],13.2 C,7.1 C,0.003 µM,0.001 µM,8.523,9.000,> 100 µM,> 100 µM,8.222,0.006 µM,38.4 µM,0.002 µM,–
N=C(N)c1ccc(NC(=O)CCCCCCCCC(=O)Nc2ccc(C(=N)N)cc2)cc1 [Compound 14],10.0 C,6.6 C,0.002 µM,0.004 µM,8.699,8.398,76.4 µM,68.5 µM,7.921,0.012 µM,78.6 µM,0.014 µM,–
"N=C(N)c1ccc(OCCCCCOc2ccc(C(=N)N)cc2)cc1 [Pentamidine, pentamidine, reference compound]",21.6 C,11.6 C,–,0.002 µM,–,–,–,–,–,–,–,–,"IC50 [1]: 0.002 µM; IC50 [2]: 0.002 µM; IC50 [5, 18]: 0.18 µM; Mean Survival [12]: >30 days; Mean Survival ([13]; 1.0, 5, 10 mg/kg/day i.p. for 3 days (all doses)): >30 days; Mean Survival [14]: >30 days; Mean Survival ([15]; 1 mg/kg/day i.p. for 3 days): 12.6 days; Mean Survival ([15]; 5 mg/kg/day i.p. for 3 days): 17.0 days; Mean Survival ([15]; 10 mg/kg/day i.p. for 3 days): 22.2 days; curing of infected mice ([15]; drug-resistant KETRI 1992, i.p., 3 days): ineffective"
"O=C(Cn1ccnc1[N+](=O)[O-])NCc1ccccc1 [benznidazole, reference compound]",–,–,–,–,–,–,–,–,–,–,–,–,"IC50 [3, 17]: 1.13 µM"
"CCN(CC)CCCC(C)Nc1ccnc2cc(Cl)ccc12 (stereo not shown) [chloroquine, reference compound]",–,–,–,–,–,–,–,–,–,–,–,–,"IC50 ([11]; Plasmodium falciparum, NF54, read-out: IC50 P. falcip NF54): 0.006 µM; IC50 ([5]; Plasmodium falciparum, K1, read-out: IC50 P. falcip K1): 0.18 µM"
"COc1cc([C@@H]2c3cc4c(cc3[C@H](O)[C@H]3COC(=O)[C@H]23)OCO4)cc(OC)c1OC [podophyllotoxin, reference compound]",–,–,–,–,–,–,–,–,–,–,–,–,"IC50 ([6]; Rattus norvegicus, L6, read-out: IC50 L6 Cells): 0.01 µM"
"N,N′-bis[4-(aminoiminomethyl)phenyl] butane-1,4-dicarboxamide [Compound 2]",11.5 C,8.1 C,9 µM,2.19 µM,5.046,5.660,> 100 µM,> 100 µM,6.538,0.29 µM,28 µM,–,–
"N,N′-bis[4-(aminoiminomethyl)phenyl] dodecane-1,12-dicarboxamide [Compound 15]",8.5 C,–,0.008 µM,0.007 µM,8.097,8.155,80.9 µM,10.7 µM,7.824,0.015 µM,80.2 µM,0.032 µM,–
"N,N′-bis[4-(aminoiminomethyl)phenyl] ethane-1,2-dicarboxamide [Compound 1]",–,–,–,–,–,–,> 100 µM,> 100 µM,8.523,0.003 µM,> 100 µM,0.008 µM,"activity against T. cruzi ([3]; in vitro): inactive; activity against L. donovani ([4]; in vitro): inactive; IC50 ([16]; range over NF54 and K1, read-out: IC50 against both strains of P. falciparum): 0.003 to 0.008 µM; selectivity index for P. falciparum (SIP.f) ([16]; ratio of the L6 cells IC50 to the P. falciparum IC50): > 33,000"
"N,N′-bis[4-(aminoiminomethyl)phenyl] heptane-1,7-dicarboxamide [Compound 11]",10.7 C,6.4 C,0.002 µM,0.002 µM,8.699,8.699,> 100 µM,> 100 µM,8.699,0.002 µM,43 µM,0.002 µM,"Mean Survival [12]: >30 days; curing of infected mice ([12]; i.p., 3 days): the most effective; also recorded: highly effective; curing of infected mice ([13]; KETRI 2002, i.p., 3 days): the most effective; also recorded: highly effective; Mean Survival ([13]; 1.0, 2.5, 5, 10 mg/kg/day i.p. for 3 days (all doses)): >30 days"
"N,N′-bis[4-(aminoiminomethyl)phenyl] nonane-1,9-dicarboxamide [Compound 13]",7.5 C,4.6 C,0.4 µM,0.24 µM,6.398,6.620,99.5 µM,67.4 µM,8.097,0.008 µM,49.2 µM,0.002 µM,–
